Values of other authors, collected in article PMC4163017 (ChemMedChem, 2014).
Several values for one entry are separate records, joined by “and”; a condition that tells them apart may be missing. Identical values can stand only once. Like-named read-outs stand apart in the source and are kept apart here.

Experiments:
IRES SLIIb RNA = details: read-out: KD (dissociation constant); free peptide GGHYrFK-amide; ref [4]
[1] = tested on: ET (luc-ubi-neo/ET) Huh7 human hepatoma cells; details: 72 h, CytoTox-1, previously reported, ref [4]
[2] = tested on: 5'-fluorescein-labeled IRES SLIIb RNA; details: ref [4]
[3] = tested on: HCV RNA replicon in ET (luc-ubi-neo/ET) Huh7 cells; details: HCV cellular replicon assay; ref [4]
[4] = fixed catalyst concentration with varying [RNA]

Row | Substance | Kd (IRES SLIIb RNA) [nM] | Cytotoxicity TC50 [1] | Cytotoxicity TC50 ([1]; listed as [GGHYrFK-amide]-Cu^2+, 1-Cu) [nM] | Km [2, 4] [µM] | kcat [2, 4] | kcat/KM [2, 4] [M⁻¹ s⁻¹] | Turnover Number [2] | activity in combination with recombinant interferon alpha-2b [3]
1 | GGHYrFK-amide | 44 | – | – | – | – | – | – | –
2 | Cu-GGHYrFK-amide [1-Cu] | 44 ± 2 | greater than 100 µM | > 100000 | 0.85 ± 0.09 | 0.00883 s⁻¹ and 0.00883 ± 0.00033 s⁻¹ | 10300 | 32 | additive to slightly synergic activity
